Measurements taken from US10253368B2, “Molecular signatures of ovarian cancer” (Cedars-Sinai Medical Center, priority 2012, dated 2019).

Experiments:
[1] = tested on: ovarian cancer cell line OVCAR3; test: TGFβ1 induction of the 10 poor outcome signature genes (mRNA) in OVCAR3 cells; format: cell-based, human
Description: (§1) FIG. 13(A) to FIG. 13(C). Regulation of the poor outcome signature genes by TGFβ signaling. (A) Ingenuity Pathway Analysis of the 61 genes present in at least two of the three discovery signatures of poor outcome. Genes that are present in all three discovery signatures are circled in red. (B) Top upstream regulators of the 61 poor outcome genes. (C) Induction of the 10 poor outcome signature genes by TGFβ1 in the ovarian stromal cell line TRS3 and the ovarian cancer cell line OVCAR3. Cells were treated with TGFβ1 (10 ng/ml) for 48 hours (TRS3) or 1-3 hours (OVCAR3) with or without pre-treatment with the TGFβ1 receptor inhibitor, A83-01. Shown is the relative fold change of the mRNA levels compared to untreated control cells. Data are presented as the mean+/−SEM in triplicate samples. * indicates P<0.05. Data are representative of at least three independent experiments.
FIG. 26. Induction of the 10 poor outcome signature genes by TGFβ1. OVCAR3 (OV3) cells were treated with 10 ng/ml TGFβ1 (B1) for either 1 hour or 3 hours with (OV3+B1+A) or without (OV3+B1) pre-treatment with the TGFβ inhibitor, A83-01.
(§2) To validate the predicted regulation of the poor outcome genes by TGFβ1, the Inventors treated the human ovarian stromal cell line TRS3 and the ovarian cancer cell line OVCAR3 with TGFβ1 and measured mRNA expression of the 10 poor outcome genes before and after TGFβ1 treatment.
(§3) Importantly, The Inventors included the ovarian stromal cell line since many of our poor outcome genes are thought to be expressed in stromal cells. […] To further validate that this induction was mediated by TGFβ1 signaling, the Inventors measured expression of the 10 genes in cells pre-treated with the TGFβ1 receptor inhibitor A83-01 before adding TGFβ1.
To learn more about the possible upstream regulators of the signature genes, the Inventors applied Ingenuity Pathway Analysis to the 61 signature genes in FIG. 12A and identified TGFβ1, TGFβ2, TGFβ3, SMAD3, and SMAD7 as top transcription factors regulating in expression of the signature genes.

TGFβ = details: mouse xenografts; cited from earlier work
[2] = tested on: ovarian stromal cell line TRS3; test: TGFβ1 induction of the 10 poor outcome signature genes (mRNA) in TRS3 cells; format: cell-based, human
Description: as §1, with “Data are presented as the mean+/−SEM in triplicate samples. * indicates P<0.05. Data are representative of at least three independent experiments.” left out
as §2, §3

LOX = details: xenograft and transgenic mouse models; cited from earlier work
[3] = tested on: ADAM12 mRNA in TRS3 cells; test: Quantitative real-time PCR of ADAM12 mRNA in TRS3 cells with recombinant TGFβ1; format: cell-based, human; details: recombinant TGFβ1 10 ng/ml, 48 hours
Description: FIG. 37(A) to FIG. 37(C). ADAM12 expression in epithelial and stromal cells in patient tumors and different culture conditions. (A) Representative localization of ADAM12 protein (immunohistochemistry; brown staining) and mRNA (in situ hybridization; brown dots) in ovarian tumor sections from HGSOC patients. Size bar for both photographs=50 μm. (B) and (C) Quantitative real-time PCR of the ADAM12 mRNA in the TRS3 ovarian stromal cell line and OVCAR3 ovarian cancer cell line alone or in co-culture in the presence or absence of 10 ng/ml of recombinant TGFβ1. TRS3 stromal cells and GFP-labelled OVCAR3 cancer cells were co-cultured using an insert (insert) or in direct contact (direct) for 48 hours and sorted by FACS before RNA isolation. The top cell line on the x axis represents the cell line from which RNA was isolated. The y axis indicates 2^−ΔCt value. Data indicates mean+/−SEM.
The OVCAR3 ovarian cancer cell line was obtained from Dennis Slamon (University of California, Los Angeles) and its authenticity was confirmed by Laragen using the short tandem repeat (STR) method. […]
Total RNA was extracted using the RNeasy mini kit (Qiagen) and was reverse-transcribed to cDNA using the QuantiTect Reverse Transcription Kit (Qiagen). […] The qRT-PCR reaction was performed using an iCycler thermo cycler (Bio Rad) and the data were analyzed by the 2-ΔCT method. […]

osteosarcoma = details: mouse model of osteosarcoma; cited from earlier work
[4] = pre-treatment before TGFβ1 10 ng/ml

In the case of Cc1cccc(-c2nn(C(=S)Nc3ccccc3)cc2-c2ccnc3ccccc23)n1 [A83-01, reference compound], the “TGFβ1-induced expression of the 10 genes in cells pre-treated with inhibitor” value [1, 4] is given as “abrogated”, the Tumor growth (TGFβ) is given as “reduce tumor growth” and the “TGFβ1-induced expression of the 10 genes in cells pre-treated with inhibitor” value [2, 4] is given as “abrogated”.

In the case of N#CCCN [β-aminopropionitrile], the Tumor metastasis (LOX) is listed as “inhibited”.

For “TGFβ1: recombinant TGFβ1 (Sigma), growth factor used at 10 ng/ml”, the “mRNA expression of the 10 poor outcome genes after TGFβ1 treatment” value ([1]; TGFβ1 10 ng/ml, 1-3 hours, most of the 10 genes) was “induced”, the “Expression of COL5A1 and SNAI2” value ([1]; after 1 hour of treatment with TGFβ1) was “markedly induced” and the “Expression of the remaining 8 genes” value ([1]; after 3 hours of treatment with TGFβ1) was “induced”. For the same compound, the “Increase of ADAM12 levels in TRS3 cells” value [3] was “approximately 10 fold” and the “mRNA expression of the 10 poor outcome genes after TGFβ1 treatment” value ([2]; TGFβ1 10 ng/ml, 48 hours, most of the 10 genes) was “induced”.

For collagenase, the “Uptake and distribution of monoclonal antibodies” value (osteosarcoma) is given as “increased”.
